Experimental data taken from patent US20220111094A1, “PATHOGEN DECONTAMINATION OF PERSONAL PROTECTIVE EQUIPMENT (PPE), FACE FILTERING R[…] (FFR) AND SINGLE USE MEDICAL DEVICES (SUD)” (priority 2020, published 2022).

Legend:
Format in all cases: cell-based
HIV-1 = assay: SuperFluids CFI decontamination of medical devices (MDV experiments), residual virus by TCID50; conditions: medical device components such as N95 masks
Procedure: Virus was eluted from control (black bars) and treated (white bars) beads by incubating them with 1 ml of growth media for 30 minutes at room temperature. The amount of HIV p24 in the eluate was measured in an ELISA.
The decontamination device prototype can be run in two modes: dynamic and static. In the static mode, virus-coated N95 face masks and other PPEs were placed in the CFI™ chamber and contacted with the SuperFluids™ for a specific amount of time at a specified pressure and temperature. The CFI™ chamber is be then rapidly exhausted into the expansion chamber. In the dynamic mode, SuperFluids™ is continuously flowed over the virus-coated glass beads at a rate of 20 mL/min, and slowly exhausted at the end of the experiment.

EMC = assay: CFI virus inactivation of EMC in a FBS matrix; conditions: 50° C., 3,000 psig, previous data
Procedure: Since Freon-22 use and production may be adversely impacted by future environmental concerns, we evaluated alternate refrigerants. Per the listing of thermodynamic properties in Table 1, Freon-23 (trifluoromethane) appears to be an excellent CFI™ candidate because: (i) it is non-chlorinated (the chlorine component of chlorofluorocarbons is thought to be responsible for their negative impact on the ozone layer): (ii) it has a low critical temperature of 25.9° C. (allows operation close to critical conditions while minimizing thermal denaturation of heat sensitive materials); and (iii) it has a relatively large dipole moment of 1.6 Debye (a large potential of solubilizing polar lipids and fats). From a comparison of previous data on the CFI™ virus inactivation of EMC in a FBS matrix, Freon-23 appears to be the best alternate to Freon-22. On the average, Freon-23 inactivated ˜3 logs vs. ˜6 logs of EMC at similar conditions of temperature (50° C.) and pressure (3,000 psig).

[1] = system: murine leukemia virus (MuLV); assay: CFI inactivation of murine leukemia virus at conditions of almost identical density; conditions: 1,000 psig and 10° C., 2,000 psig and 22° C. and 4,000 psig and 40° C.
Procedure: Temperature. In preliminary studies, all experiments were conducted at or around room temperature in order to maximize the […] of the time and temperature control. Under these conditions, most of the CFI experiments were conducted at sub-critical conditions that may not be optimal for virus inactivation. Temperature will have an impact on both the thermodynamic properties of the SuperFluids™, the configurational structure of the virus, and the integrity of the PPEs and SUDs. Temperature with pressure defines the density of SuperFluids™, and their solvation capacities and expansion factors; the former impacts viral kill by a phospholipid solubilization mechanism and the latter by an explosive decompression mechanism. […] CFI™ technology thus favors lower temperatures, which are better for material integrity. Lowering the temperature often requires the lowering of pressure because density is directly (but not linearly) proportional to pressure and inversely proportional to temperature.

SMILES | logs of EMC inactivated (on the average) (EMC) | further results
O=C=O [Carbon dioxide] | – | virus inactivation of HIV viruses associated with medical device components (HIV-1): quite effective
FC(F)Cl [Freon-22, chlorodifluoromethane] | ~6 logs | –
FC(F)F [Freon-23, trifluoromethane] | ~3 logs | –
[N-]=[N+]=O [N20, Nitrous Oxide] | – | inactivation of MuLV [1]: equally effective
